Results: patent US6734186B1, “Compounds for the treatment of female sexual dysfunction” (Pfizer Inc., priority 1999, dated 2004)
“Also recorded” adds a separate entry of the source. Like-named read-outs stand apart in the source and are kept apart here.

Legend:
[1] = tested on: anaesthetised rabbit model of sexual arousal; experiment: Increase in vaginal blood flow after iv infusion of vasoactive agents, anaesthetised rabbit model of sexual arousal (laser Doppler); assay type: in vivo
Source text: (§1) A ventral midline incision was made, at the caudal end of the pubis, to expose the pubic area. Connective tissue was removed to expose the tunica of the clitoris, ensuring that the wall was free from small blood vessels. The external vaginal wall was also exposed by removing any connective tissue. One laser Doppler flow probe was inserted 3 cm into the vagina, so that half the probe shaft was still visible. A second probe was positioned so that it lay just above the external clitoral wall. The position of these probes was then adjusted until a signal was obtained. A second probe was placed just above the surface of a blood vessel on the external vaginal wall. Both probes were clamped in position.
(§2) Vaginal and clitoral blood flow was recorded either as numbers directly from the Flowmeter using Po-ne-mah data acquisition software (Ponemah Physiology Platform, Gould Instrument Systems Inc), or indirectly from Gould chart recorder trace. Calibration was set at the beginning of the experiment (0-125 ml/min/100 g tissue).
An initial infusion of Hepsaline (50UI/ml) was infused to act as a negative control.

anaesthetised rabbit = tested on: anaesthetised rabbit
Method: Female New Zealand rabbits (˜2.5 kg) were pre-medicated with a combination of Medetomidine (Domitor®) 0.5 ml/kg i.m., and Ketamine (Vetalar®) 0.25 ml/kg i.m. whilst maintaining oxygen intake via a face mask. The rabbits were tracheotomised using a Portex™ uncuffed endotracheal tube 3 ID., connected to ventilator and maintained at a ventilation rate of 30-40 breaths per minute, with an approximate tidal volume of 18-20 ml, and a maximum airway pressure of 10 cm H2O. Anaesthesia was then switched to Isoflurane and ventilation continued with O2 at 2 l/min. The right marginal ear vein was cannulated using a 23G or 24G catheter, and Lactated Ringer solution perfused at 0.5 ml/min. The rabbit was maintained at 3% Isoflurane during invasive surgery, dropping to 2% for maintenance anaesthesia.
The left groin area of the rabbit was shaved and a vertical incision was made approximately 5 cm in length along the thigh. The femoral vein and artery were exposed, isolated and then cannulated with a PVC catheter (17G) for the infusion of drugs and compounds. Cannulation was repeated for the femoral artery, inserting the catheter to a depth of 10 cm to ensure that the catheter reached the abdominal aorta. This arterial catheter was linked to a Gould system to record blood pressure. Samples for blood gas analysis were also taken via the arterial catheter. Systolic and diastolic pressures were measured, and the mean arterial pressure calculated using the formula (diastolic x2÷systolic)+3. Heart rate was measured via the pulse oxymeter and Po-ne-mah data acquisition software system (Ponemah Physiology Platform, Gould Instrument Systems Inc).

isolated rabbit vagina = experiment: Relaxation of precontracted (1 μM phenylephrine) isolated rabbit vaginal strips; assay type: cell-based
Method: 3.7 (a). Rabbit vagina in vitro preparation:—Female New Zealand white rabbits (2.0-3.0 kg) were killed by cervical dislocation. The abdominal cavity was opened and the vagina excised. Tissue strips were mounted longitudinally in Wesley Co. 5 ml silanised organ chambers with braided silk sutures (6/0 gauge) at an initial resting tension of 1.5 g in Krebs bicarbonate buffer maintained at 37° C. and gassed with 95%O2/5%CO2. The upper ligature of each tissue strip was attached to a 10 g capacity force-displacement transducer and changes in isometric force were measured and recorded using a DART in vitro data capture system. Tissues were allowed to equilibrate for 1.5 hours and were regularly washed with Krebs.
Each tissue was contracted using 1 μM bath concentration of phenylephrine. […] Tissues then received either a test agent (eg NEP or PDE inhibitor) or DMSO vehicle (time matched control).
For the purpose of curve fitting the minimum relaxation response was constrained to 0% and the maximum relaxation response was allowed to free fit.

[2] = tested on: human vaginal smooth muscles cell cultures; settings: VIP 0.5 μM; Traish 1999; cited from earlier work
[3] = tested on: anaesthetised rabbit model of sexual arousal; experiment: Increase in clitoral blood flow after iv infusion of vasoactive agents, anaesthetised rabbit model; assay type: in vivo; settings: VIP 200 μg/kg iv infusion
Source text: as §1, §2

CC[C@H](C)[C@H](NC(=O)[C@H](CO)NC(=O)[C@H](CC(N)=O)NC(=O)[C@H](CC(C)C)NC(=O)[C@H](Cc1ccc(O)cc1)NC(=O)[C@H](CCCCN)NC(=O)[C@H](CCCCN)NC(=O)[C@@H](NC(=O)[C@H](C)NC(=O)[C@H](CCSC)NC(=O)[C@H](CCC(N)=O)NC(=O)[C@H](CCCCN)NC(=O)[C@H](CCCNC(=N)N)NC(=O)[C@H](CC(C)C)NC(=O)[C@H](CCCNC(=N)N)NC(=O)[C@@H](NC(=O)[C@H](Cc1ccc(O)cc1)NC(=O)[C@H](CC(N)=O)NC(=O)[C@H](CC(=O)O)NC(=O)[C@@H](NC(=O)[C@H](Cc1ccccc1)NC(=O)[C@@H](NC(=O)[C@H](C)NC(=O)[C@H](CC(=O)O)NC(=O)[C@H](CO)NC(=O)[C@@H](N)Cc1c[nH]cn1)C(C)C)[C@@H](C)O)[C@@H](C)O)C(C)C)C(=O)N[C@@H](CC(C)C)C(=O)N[C@@H](CC(N)=O)C(N)=O [VIP, Vasoactive intestinal peptide]
increase in vaginal blood flow ([1]; VIP 60 μg/kg intravenous): 24.7±3.6 ml/min/100 g tissue
time blood flow remained elevated above basal post-infusion ([1]; VIP 60 μg/kg intravenous): about 11 minutes
increase in vaginal blood flow ([1]; VIP 6.0 g/kg (so in the source)): 7.5±1.3 ml/min/100 g tissue
increase in heart rate (anaesthetised rabbit; VIP 6.0 μg/kg iv): 16±4 beats per minute
reduction in mean arterial blood pressure (anaesthetised rabbit; VIP 6.0 μg/kg iv): 13.2±0.7 mm Hg
increase in heart rate (anaesthetised rabbit; VIP 60.0 μg/kg iv): 111±30 beats per minute
reduction in mean arterial blood pressure (anaesthetised rabbit; VIP 60.0 μg/kg iv): 14.7±1.37 mm Hg
subsequent increase in mean arterial blood pressure (anaesthetised rabbit; VIP 60.0 μg/kg iv, following heart rate increase): 8.5±1.4 mm Hg
effect on mean arterial blood pressure (anaesthetised rabbit; anaesthetised rabbit): significant depression
relaxation of precontracted isolated vagina (isolated rabbit vagina; VIP 0.1 μM): circa 80%
EC50 (isolated rabbit vagina; precontracted with 1 μM phenylephrine, read-out: EC50 for relaxation in isolated vaginal tissue): 18.8 ± 0.6 nM
effect on cAMP levels in vaginal smooth muscle cell cultures [2]: no effect; also recorded: fails to elevate
increase in clitoral blood flow [3]: 115%
